Consider 2 compounds from patent publication US20080064692A1.

One assay relates to Corticium sasakii. To be noted: rice cultivar Tai-Nong 67, protective spray, evaluated after 11 days.
Another assay relates to Plasmopara viticola. The experiment in a line: Activity against Peronospora of grapevines caused by Plasmopara viticola. To be noted: vines cultivar Riesling, protective spray.

Where two headings read alike, the source gives them in different places.

Procedure for Corticium sasakii: (§1) 1% by weight of the emulsifier Uniperol® EL (wetting agent having emulsifying and dispersant action based on ethoxylated alkylphenols) was added to this solution, and the mixture was diluted with water to the desired concentration.
(§2) Evaluation is carried out by determining the infected leaf areas in percent. These percentages were converted into efficacies.
(§3) The efficacy (E) is calculated as follows using Abbot's formula:
(§4) α corresponds to the fungicidal infection of the treated plants in % and β corresponds to the fungicidal infection of the untreated (control) plants in %
(§5) An efficacy of 0 means that the infection level of the treated plants corresponds to that of the untreated control plants; an efficacy of 100 means that the treated plants are not infected.
The next day, oat grains infected with Corticium sasakii were placed into the pots (in each case 5 grains per pot). The plants were then placed in a chamber at 26° C. and maximum atmospheric humidity.
Procedure for Plasmopara viticola: as §1, §2, §3, §4, §5
The next day, the undersides of the leaves were inoculated with an aqueous zoospore suspension of Plasmopara viticola. The grapevines were then initially placed in a water-vapor-saturated chamber at 24° C. for 48 hours and then in a greenhouse at 20-30° C. for 5 days. After this period of time, the plants were again placed in a humid chamber for 16 hours to promote sporangiophore eruption. The extent of the development of the disease on the undersides of the leaves was then determined visually.

Consider `CO/N=C(/C1=NOCCO1)c1ccccc1Oc1ncnc(Oc2ccccc2Cl)c1F` [II (fluoxastrobin), {2-[6-(2-chlorophenoxy)-5-fluoropyrimidin-4-yloxy]phenyl}-(5,6-dihydro-[1,4,2]dioxazin-3-yl)methanon O-methyl oxime], for which the “Efficacy in % of the untreated control” value in the assay on Corticium sasakii (1 ppm in the spray liquor) worked out at 0%; in the assay on Corticium sasakii (16 ppm in the spray liquor), 18%; in the assay with Plasmopara viticola (4 ppm in the spray liquor) it was 21%; with Plasmopara viticola (16 ppm in the spray liquor), 55%.
As for `CC1CCN(c2c(-c3c(F)cc(F)cc3F)c(Cl)nc3ncnn23)CC1` [I, 5-chloro-7-(4-methylpiperidin-1-yl)-6-(2,4,6-trifluorophenyl)-[1,2,4]triazolo[1,5-a]pyrimidine], the “Efficacy in % of the untreated control” value with Corticium sasakii (4 ppm in the spray liquor) was 30%; in the assay with Plasmopara viticola (4 ppm in the spray liquor) it was 21%; in the assay on Plasmopara viticola (16 ppm in the spray liquor) it was 44%.
